From patent publication US20220280490A1, “TREATMENT OF FRAGILE X SYNDROME” (HEALX LTD, priority 2019, published 2022)

What was measured:
Format in all cases: in vivo, mouse
Conditions in all cases: 12 mg/kg ibudilast, compared with WT vehicle
Fmr1 KO2 mice [1] = assay: Nesting
Excerpt: (§1) Fmr1 knockout 2 (Fmr1 K02) mice were generated by deletion of the promoter and first exon of Fmr1. The Fmr1 KO2 it is both, protein and mRNA null. In this study we used Fmr1 KO2 and wild-type (WT) littermates generated on a C57BL/6J background and repeatedly backcrossed onto a C57BL/6J background for more than eight generations.
(§2) There were four treatment groups per compound in the study with 10 male mice used per treatment group (all at 8 weeks of age): Group 1: wild-type littermate mice treated with vehicle (WT-Veh), Group 2: Fmr1 KO2 mice treated with vehicle (KO-Veh), Group 3: Fmr1 KO2 mice treated with 12 mg/kg ibudilast (KO-ibudilast).
(§3) For experiments, all mice were tested once in the same apparatus. Prior to testing, mice were placed in the apparatus for some minutes before the experiment. The apparatus was cleaned with moist and dry tissues before testing each mouse. […] We assessed weight loss, fur loss, walking, eyes open, eye discharges and general behavior.
The test was performed in individual cages. […] Mice were placed individually into the nesting cages 1 hr. before the dark phase, and the results were assessed the next morning. Nest building was scored on a 5 point scale. […]
(§4) Data were analyzed by one-way ANOVA with a Dunnett's multiple comparison post hoc test in which WT Vehicle group was used as reference and compared with all the other groups

Fmr1 KO2 mice [2] = assay: Contextual fear conditioning
Excerpt: as §1, §2
For experiments, all mice were tested once in the same apparatus. Prior to testing, mice were placed in the apparatus for some minutes before the experiment. The apparatus was cleaned with moist and dry tissues before testing each mouse. The aim was to create a low but constant background mouse odor for all experimental subjects. Testers were blind to the genotype and treatment during all testing and data analysis. We assessed weight loss, fur loss, walking, eyes open, eye discharges and general behavior. […]
as §4

Fmr1 KO2 mice [3] = assay: Open field (hyperactivity)
Excerpt: as §1, §2
For experiments, all mice were tested once in the same apparatus. Prior to testing, mice were placed in the apparatus for some minutes before the experiment. […] We assessed weight loss, fur loss, walking, eyes open, eye discharges and general behavior.
The open-field apparatus was used to test hyperactivity. […] The number of squares entered by the whole body (locomotor activity) was counted. The movement of the mouse around the field was recorded with a video tracking device for 3 min (version NT4.0, Viewpoint).
as §4

Fmr1 KO2 mice [4] = assay: Three-chambered sociability task (social interaction)
Excerpt: as §1, §2, §3
In the three-chambered sociability task, a subject mouse was evaluated for its exploration of a novel social stimulus (novel mouse). […] The time spent exploring the novel mice was scored as exploration ratio.
as §4

CC(C)C(=O)c1c(C(C)C)nn2ccccc12 [ibudilast, 2-methyl-1-(2-propan-2-ylpyrazolo[1,5-a]pyridin-3-yl)propan-1-one]
fully rescued: nesting (nest building score) (Fmr1 KO2 mice [1]) | fear conditioning (freezing response) (Fmr1 KO2 mice [2]) | open field (hyperactivity, locomotor activity) (Fmr1 KO2 mice [3]) | sociability (exploration ratio) (Fmr1 KO2 mice [4])
